Laboratory results reported in patent US11357230B2, “Herbicidal amides” (FMC Corporation, priority 2017, dated 2022).

How the values were obtained:
Format in all cases: in vivo
[1] = tested on: ragweed (common ragweed, Ambrosia elatior); test: Test A postemergence, ragweed; conditions: approximately 10 d
From the text: (§1) Seeds of plant species selected from barnyardgrass (Echinochloa crus-galli), kochia (Kochia scoparia), ragweed (common ragweed, Ambrosia elatior), ryegrass, Italian (Italian ryegrass, Lolium multiflorum), foxtail, green (green foxtail, Setaria viridis), and pigweed (Amaranthus retroflexus) were planted into a blend of loam soil and sand and treated preemergence with a directed soil spray using test chemicals formulated in a non-phytotoxic solvent mixture which included a surfactant. At the same time, plants selected from these weed species and also wheat (Triticum aestivum), corn (Zea mays), blackgrass (Alopecurus myosuroides), and galium (catchweed bedstraw, Galium aparine) were planted in pots containing the same blend of loam soil and sand and treated with postemergence applications of test chemicals formulated in the same manner. Plants ranged in height from 2 to 10 cm and were in the one- to two-leaf stage for the postemergence treatment. Treated plants and untreated controls were maintained in a greenhouse for approximately 10 d, after which time all treated plants were compared to untreated controls and visually evaluated for injury. Plant response ratings, summarized in Table A, are based on a 0 to 100 scale where 0 is no effect and 100 is complete control. A dash (-) response means no test result.

[2] = tested on: ryegrass, Italian (Italian ryegrass, Lolium multiflorum); test: Test A preemergence, Italian ryegrass; conditions: approximately 10 d
From the text: as §1

[3] = tested on: ragweed (common ragweed, Ambrosia elatior); test: Test A preemergence, ragweed; conditions: approximately 10 d
From the text: as §1

[4] = tested on: ryegrass, Italian (Italian ryegrass, Lolium multiflorum); test: Test A postemergence, Italian ryegrass; conditions: approximately 10 d
From the text: as §1

[5] = tested on: barnyardgrass (Echinochloa crus-galli); test: Test A preemergence, barnyardgrass; conditions: approximately 10 d
From the text: as §1

[6] = tested on: blackgrass (Alopecurus myosuroides); test: Test A postemergence, blackgrass; conditions: approximately 10 d
From the text: as §1

[7] = tested on: barnyardgrass (Echinochloa crus-galli); test: Test A postemergence, barnyardgrass; conditions: approximately 10 d
From the text: as §1

corn (Zea mays) = test: Test A postemergence, corn; conditions: approximately 10 d
From the text: as §1

Foxtail, Giant [8] = test: Test A preemergence, giant foxtail; conditions: approximately 10 d
[9] = tested on: galium (catchweed bedstraw, Galium aparine); test: Test A postemergence, galium; conditions: approximately 10 d
From the text: as §1

kochia (Kochia scoparia) [10] = test: Test A preemergence, kochia; conditions: approximately 10 d
From the text: as §1

[11] = tested on: pigweed (Amaranthus retroflexus); test: Test A postemergence, pigweed; conditions: approximately 10 d
From the text: as §1

rice (Oryza sativa) = test: Test B flooded paddy test, rice; conditions: 250 g ai/ha, Flood (paddy water), 13 to 15 d
Method: (§2) Plant species in the flooded paddy test selected from rice (Oryza sativa), sedge, umbrella (small-flower umbrella sedge, Cyperus difformis), ducksalad (Heteranthera limosa), and barnyardgrass (Echinochloa crus-galli) were grown to the 2-leaf stage for testing. At time of treatment, test pots were flooded to 3 cm above the soil surface, treated by application of test compounds directly to the paddy water, and then maintained at that water depth for the duration of the test. Treated plants and controls were maintained in a greenhouse for 13 to 15 d, after which time all species were compared to controls and visually evaluated. Plant response ratings, summarized in Table B, are based on a scale of 0 to 100 where 0 is no effect and 100 is complete control. A dash (-) response means no test result.

[12] = tested on: wheat (Triticum aestivum); test: Test A postemergence, wheat; conditions: approximately 10 d
From the text: as §1

Foxtail, Giant [13] = test: Test A postemergence, giant foxtail; conditions: approximately 10 d
[14] = tested on: ducksalad (Heteranthera limosa); test: Test B flooded paddy test, ducksalad; conditions: 250 g ai/ha, Flood (paddy water), 13 to 15 d
Method: as §2

kochia (Kochia scoparia) [15] = test: Test A postemergence, kochia; conditions: approximately 10 d
From the text: as §1

[16] = tested on: sedge, umbrella (small-flower umbrella sedge, Cyperus difformis); test: Test B flooded paddy test, umbrella sedge; conditions: 250 g ai/ha, Flood (paddy water), 13 to 15 d
Method: as §2

[17] = tested on: pigweed (Amaranthus retroflexus); test: Test A preemergence, pigweed; conditions: approximately 10 d
From the text: as §1

[18] = tested on: barnyardgrass (Echinochloa crus-galli); test: Test B flooded paddy test, barnyardgrass; conditions: 250 g ai/ha, Flood (paddy water), 13 to 15 d
Method: as §2

Structure (SMILES)	Plant response rating (0 to 100 scale, 0 is no effect, 100 is complete control) ([1]; 31 g ai/ha)	Plant response rating (0 to 100 scale, 0 is no effect, 100 is complete control) ([1]; 125 g ai/ha)	Plant response rating (0 to 100 scale, 0 is no effect, 100 is complete control) ([2]; 31 g ai/ha)	Plant response rating (0 to 100 scale, 0 is no effect, 100 is complete control) ([2]; 125 g ai/ha)	Plant response rating (0 to 100 scale, 0 is no effect, 100 is complete control) ([3]; 31 g ai/ha)	Plant response rating (0 to 100 scale, 0 is no effect, 100 is complete control) ([3]; 125 g ai/ha)	Plant response rating (0 to 100 scale, 0 is no effect, 100 is complete control) ([4]; 31 g ai/ha)	Plant response rating (0 to 100 scale, 0 is no effect, 100 is complete control) ([4]; 125 g ai/ha)	Plant response rating (0 to 100 scale, 0 is no effect, 100 is complete control) ([5]; 31 g ai/ha)	Plant response rating (0 to 100 scale, 0 is no effect, 100 is complete control) ([5]; 125 g ai/ha)	Plant response rating (0 to 100 scale, 0 is no effect, 100 is complete control) ([6]; 31 g ai/ha)	Plant response rating (0 to 100 scale, 0 is no effect, 100 is complete control) ([6]; 125 g ai/ha)	Plant response rating (0 to 100 scale, 0 is no effect, 100 is complete control) ([7]; 31 g ai/ha)	Plant response rating (0 to 100 scale, 0 is no effect, 100 is complete control) ([7]; 125 g ai/ha)	Plant response rating (0 to 100 scale, 0 is no effect, 100 is complete control) (corn (Zea mays); 31 g ai/ha)	Plant response rating (0 to 100 scale, 0 is no effect, 100 is complete control) (corn (Zea mays); 125 g ai/ha)	Plant response rating (0 to 100 scale, 0 is no effect, 100 is complete control) (Foxtail, Giant [8]; 31 g ai/ha)	Plant response rating (0 to 100 scale, 0 is no effect, 100 is complete control) (Foxtail, Giant [8]; 125 g ai/ha)	Plant response rating (0 to 100 scale, 0 is no effect, 100 is complete control) ([9]; 31 g ai/ha)	Plant response rating (0 to 100 scale, 0 is no effect, 100 is complete control) ([9]; 125 g ai/ha)	further results
CNN=C1[C@H](C(=O)Nc2cccc(F)c2F)[C@@H](c2ccc(C(F)(F)F)cc2)CN1C (relative stereo) [Compound 3]	0	50	0	90	0	0	0	40	30	90	40	80	60	70	20	30	70	90	60	80	Plant response rating (0 to 100 scale, 0 is no effect, 100 is complete control) (kochia (Kochia scoparia) [10]; 31 g ai/ha): 0; Plant response rating (0 to 100 scale, 0 is no effect, 100 is complete control) (kochia (Kochia scoparia) [10]; 125 g ai/ha): 30; Plant response rating (0 to 100 scale, 0 is no effect, 100 is complete control) ([11]; 31 g ai/ha): 0; Plant response rating (0 to 100 scale, 0 is no effect, 100 is complete control) ([11]; 125 g ai/ha): 90; Plant response rating (scale of 0 to 100, 0 is no effect, 100 is complete control) (rice (Oryza sativa)): 0; Plant response rating (0 to 100 scale, 0 is no effect, 100 is complete control) ([12]; 31 g ai/ha): 0; Plant response rating (0 to 100 scale, 0 is no effect, 100 is complete control) ([12]; 125 g ai/ha): 30; Plant response rating (0 to 100 scale, 0 is no effect, 100 is complete control) (Foxtail, Giant [13]; 31 g ai/ha): 40; Plant response rating (0 to 100 scale, 0 is no effect, 100 is complete control) (Foxtail, Giant [13]; 125 g ai/ha): 70; Plant response rating (scale of 0 to 100, 0 is no effect, 100 is complete control) [14]: 100; Plant response rating (0 to 100 scale, 0 is no effect, 100 is complete control) (kochia (Kochia scoparia) [15]; 31 g ai/ha): 20; Plant response rating (0 to 100 scale, 0 is no effect, 100 is complete control) (kochia (Kochia scoparia) [15]; 125 g ai/ha): 60; Plant response rating (scale of 0 to 100, 0 is no effect, 100 is complete control) [16]: 0; Plant response rating (0 to 100 scale, 0 is no effect, 100 is complete control) ([17]; 31 g ai/ha): 0; Plant response rating (0 to 100 scale, 0 is no effect, 100 is complete control) ([17]; 125 g ai/ha): 70; Plant response rating (scale of 0 to 100, 0 is no effect, 100 is complete control) [18]: 70
CC(=O)NN=C1[C@H](C(=O)Nc2cccc(F)c2F)[C@@H](c2ccc(C(F)(F)F)cc2)CN1C (relative stereo) [Compound 5]	0	0	20	90	0	70	10	80	90	90	60	80	60	80	0	40	90	90	70	80	Plant response rating (0 to 100 scale, 0 is no effect, 100 is complete control) (kochia (Kochia scoparia) [10]; 31 g ai/ha): 10; Plant response rating (0 to 100 scale, 0 is no effect, 100 is complete control) (kochia (Kochia scoparia) [10]; 125 g ai/ha): 90; Plant response rating (0 to 100 scale, 0 is no effect, 100 is complete control) ([11]; 31 g ai/ha): 30; Plant response rating (0 to 100 scale, 0 is no effect, 100 is complete control) ([11]; 125 g ai/ha): 80; Plant response rating (scale of 0 to 100, 0 is no effect, 100 is complete control) (rice (Oryza sativa)): 0; Plant response rating (0 to 100 scale, 0 is no effect, 100 is complete control) ([12]; 31 g ai/ha): 0; Plant response rating (0 to 100 scale, 0 is no effect, 100 is complete control) ([12]; 125 g ai/ha): 50; Plant response rating (0 to 100 scale, 0 is no effect, 100 is complete control) (Foxtail, Giant [13]; 31 g ai/ha): 70; Plant response rating (0 to 100 scale, 0 is no effect, 100 is complete control) (Foxtail, Giant [13]; 125 g ai/ha): 80; Plant response rating (scale of 0 to 100, 0 is no effect, 100 is complete control) [14]: 65; Plant response rating (0 to 100 scale, 0 is no effect, 100 is complete control) (kochia (Kochia scoparia) [15]; 31 g ai/ha): 20; Plant response rating (0 to 100 scale, 0 is no effect, 100 is complete control) (kochia (Kochia scoparia) [15]; 125 g ai/ha): 30; Plant response rating (scale of 0 to 100, 0 is no effect, 100 is complete control) [16]: 0; Plant response rating (0 to 100 scale, 0 is no effect, 100 is complete control) ([17]; 31 g ai/ha): 70; Plant response rating (0 to 100 scale, 0 is no effect, 100 is complete control) ([17]; 125 g ai/ha): 80; Plant response rating (scale of 0 to 100, 0 is no effect, 100 is complete control) [18]: 45
